Read-outs that look alike come from different tables or passages of the source.
Key:
Assay type in all cases: cell-based, human
MM96L melanoma cells = assay: Cell survival assay (clonogenic survival, SRB)
Method in brief: (§1)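 Cells (5×10^3/well, RPMI 1640 with 10% FCS) treated 24 h with compound at 0.01-10 μg/mL, then washed and grown 72 h drug-free at 37 °C, 5% CO2. Survival read by SRB staining after methylated-spirit fixation, absorbance 564 nm.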

SkMel28 melanoma cells = assay: Cell survival assay (SRB); conditions: Table 10, standard deviations in parentheses, read-out: Cell line IC50 (μM) SkMel
Description: (§2) Cell Lines and Culture Medium. All cell lines used in this study have been described previously (Parsons et al., 1986; Todaro et al., 1980; Glenn et al., 2004). All cell lines were cultured in 10% heat-inactivated foetal calf serum (CSL, Australia) in RPMI 1640 medium supplemented with 100 U/mL penicillin, 100 μg/mL streptomycin, and 3 mM HEPES at 5% CO2, 99% humidity at 37° C. Primary human fibroblasts were obtained from neonatal foreskins and cultured in the above medium. Routine mycoplasma tests were performed using Hoechst stain^i and were always negative.
(§3) Cell Survival Assay. Cells were plated into 96-well microtitre plates at 5×10^3 cells/well, and allowed to adhere overnight. Test compounds were added to culture medium at the indicated concentrations, and plates incubated in the above conditions for 24 hours. Following this incubation period, compounds and media were removed, and replaced with fresh culture medium. Cells were then grown for a further 72 hours before assay using sulforhodamine B (SRB; Sigma, St. Louis, Mo.) as previously described. Briefly, the culture medium was removed from the 96-well microtitre plates and the plates washed twice with phosphate buffered saline (PBS), before the cells were fixed with methylated spirits for 15 minutes. The plates were then rinsed with tap water and the fixed cells stained with 50 μL/well of SRB solution (0.4% sulforhodamine B (w/v) in 1% (v/v) acetic acid) over a period of 1 hour. The SRB solution was then removed from the wells and the plates rapidly washed two times with 1% (v/v) acetic acid. Protein bound dye was then solubilised with the addition of 100 μL of 10 mM unbuffered Tris, and incubated for 15 min at 25° C. Plates were then read at 564 nm on a VERSA max tunable microplate reader (Molecular Devices, Sunnyvale, Calif.).
(§4) For comparison their results are also shown for MM96L and NFF cell lines.

JAM ovarian cancer cells = assay: Cell survival assay (SRB); conditions: Table 10, standard deviations in parentheses, read-out: Cell line IC50 (μM) JAM
Description: as §2, §3, §4

[1] = system: CI-80-13S ovarian cancer cells; assay: Cell survival assay (SRB); conditions: Table 10, standard deviations in parentheses, read-out: Cell line IC50 (μM) C18013S
Description: as §2, §3, §4

[2] = system: DU145 prostate cancer cells; assay: Cell survival assay (SRB); conditions: Table 10, standard deviations in parentheses, read-out: Cell line IC50 (μM) DU145
Description: as §2, §3, §4

[3] = system: MCF-7 breast cancer cells; assay: Cell survival assay (SRB); conditions: Table 10, standard deviations in parentheses, read-out: Cell line IC50 (μM) MCF7
Description: as §2, §3, §4

DO4 melanoma cells = assay: Cell survival assay (SRB); conditions: Table 10, standard deviations in parentheses, read-out: Cell line IC50 (μM) DO4
Description: as §2, §3, §4

[4] = system: NFF, neonatal foreskin fibroblasts; assay: Cell survival assay (clonogenic survival, SRB), normal cells
Method in brief: as §1

[5] = Table 6, IC50 (NFF)/IC50 (MM96L)
[6] = Table 10, standard deviations in parentheses, read-out: Cell line IC50 (μM) MM96L
[7] = Table 10, standard deviations in parentheses, read-out: Cell line IC50 (μM) NFF

Structure (SMILES) | Selectivity (MM96L melanoma cells; [5]) | IC50 (MM96L melanoma cells; [6]) [µM] | IC50 (SkMel28 melanoma cells) [µM] | IC50 (JAM ovarian cancer cells) [µM] | IC50 [1] [µM] | IC50 [2] [µM] | IC50 [3] [µM] | IC50 (DO4 melanoma cells) [µM] | IC50 [4, 7] [µM] | other results
CN(C)c1ccc(NC(=O)[C@H](CSCCCC(=O)NO)NC(=O)c2ccc(N(C)C)cc2)cc1 [Example 59] | 6.0 | – | – | – | – | – | – | – | – | IC50 (MM96L melanoma cells; Homo sapiens, MM96L, 24 h, Table 6, 24 hours with compound, further growth, SRB, read-out: IC50 (μM) MM96L): 0.1 ± 0.1 µM; IC50 (MM96L melanoma cells; Homo sapiens, MM96L, Table 10, standard deviations in parentheses, read-out: Cell line IC50 (μM) MM96L): 0.1 µM; IC50 (MM96L melanoma cells; Homo sapiens, MM96L, most preferred compounds, exemplary examples, read-out: potency of IC50 against the MM96 melanoma cells): ≤ 0.5 µM; IC50 (SkMel28 melanoma cells; Homo sapiens, SK-MEL-28): 1.09 µM; IC50 (JAM ovarian cancer cells; Homo sapiens): 0.43 µM; IC50 ([1]; Homo sapiens, C180-13S): 0.39 µM; IC50 ([2]; Homo sapiens, DU-145): 0.33 µM; IC50 ([3]; Homo sapiens, MCF7): 0.39 µM; IC50 (DO4 melanoma cells; Homo sapiens, DO4): 1.05 µM; IC50 ([4]; Homo sapiens, Fibroblast, 24 h, Table 6, 24 hours with compound, further growth, SRB, read-out: IC50 (μM) NFF): 0.6 ± 0.1 µM; IC50 ([4]; Homo sapiens, Fibroblast, Table 10, standard deviations in parentheses, read-out: Cell line IC50 (μM) NFF): 0.6 µM
O=C(CCCSC[C@H](NC(=O)C(O)(c1ccccc1)c1ccccc1)C(=O)NCc1ccccc1)NO [Example 44] | – | 0.2 | 2.5 | 1.8 | 0.6 | 1.7 | 0.7 | 2.1 | 0.8 | IC50 (MM96L melanoma cells; Table 5, 24 hours with compound, further growth, SRB, read-out: IC50 MM96L): 1.8 ± 0.2 µM; Selectivity (MM96L melanoma cells; Table 5, Selectivity Index = IC50 (NFF)/IC50 (MM96L)): 5.2; IC50 ([4]; Table 5, 24 hours with compound, further growth, SRB, read-out: IC50 NFF): 9.3 ± 0.7 µM
CN(C)c1ccc(C(=O)N[C@@H](CSCCCC(=O)NO)C(=O)N[C@H]2c3ccccc3C[C@H]2O)cc1 [Example 70] | 9.1 | 0.9 | 6.14 | 7.22 | 2.5 | 3.76 | 3.3 | 7.12 | 8.2 | IC50 (MM96L melanoma cells; Table 6, 24 hours with compound, further growth, SRB, read-out: IC50 (μM) MM96L): 0.9 ± 0.05 µM; IC50 ([4]; Table 6, 24 hours with compound, further growth, SRB, read-out: IC50 (μM) NFF): 8.2 ± 0.8 µM

Source: patent publication US20080004290A1, “Anti-Cancer Agents” (THE UNIVERSITY OF QUEENSLAND, priority 2003, published 2008)
